The text below walks through data of BindingDB's records for doi:10.1111/cbdd.12588 (Tehran University of Medical Sciences, 2015).

The target in assay [1] is Acetylcholinesterase (Electrophorus electricus, UniProt O42275). In words: Cholinesterase Inhibition Assay. The conditions noted are these: pH 8. The procedure:
(§1) The target compounds were dissolved in a mixture of 1 mL DMSO and 9 mL methanol and diluted in 0.1 M KH2PO4/K2HPO4 buffer (pH 8.0) to obtain final concentrations.For each compound, five different concentrations were tested to obtain the range of 20-80% enzyme inhibition. The assay medium was composed of 3 mL of phosphatebuffer (0.1 M, pH 8.0), 100 µL of DTNB (0.01 M), 100 µL of enzyme solution (AChE or BuChE, 2.5 unit/mL), and 50 µL of test compound.

Assay [2] concerns the target Carboxylic ester hydrolase (Equus caballus, UniProt Q9N1N9). In words: Cholinesterase Inhibition Assay. The note with it: pH 8. The procedure:
as §1

Sequence of Carboxylic ester hydrolase (Q9N1N9 whole entry): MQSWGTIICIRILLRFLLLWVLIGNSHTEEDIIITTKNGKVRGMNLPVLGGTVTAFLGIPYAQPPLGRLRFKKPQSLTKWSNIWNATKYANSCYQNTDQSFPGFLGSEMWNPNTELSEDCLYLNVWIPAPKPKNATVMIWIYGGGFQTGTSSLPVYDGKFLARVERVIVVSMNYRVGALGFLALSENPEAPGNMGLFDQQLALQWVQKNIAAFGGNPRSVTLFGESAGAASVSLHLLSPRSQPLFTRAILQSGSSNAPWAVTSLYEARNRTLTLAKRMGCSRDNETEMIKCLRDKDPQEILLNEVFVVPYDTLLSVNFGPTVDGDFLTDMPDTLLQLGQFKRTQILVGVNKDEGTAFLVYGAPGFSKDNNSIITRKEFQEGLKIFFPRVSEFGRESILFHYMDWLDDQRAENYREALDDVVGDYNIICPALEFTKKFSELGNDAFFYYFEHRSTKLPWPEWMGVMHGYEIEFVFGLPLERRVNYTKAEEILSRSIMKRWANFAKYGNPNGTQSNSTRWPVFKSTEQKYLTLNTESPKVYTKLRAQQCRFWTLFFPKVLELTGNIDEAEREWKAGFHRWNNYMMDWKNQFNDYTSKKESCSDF
Sequence of Acetylcholinesterase (O42275 whole entry): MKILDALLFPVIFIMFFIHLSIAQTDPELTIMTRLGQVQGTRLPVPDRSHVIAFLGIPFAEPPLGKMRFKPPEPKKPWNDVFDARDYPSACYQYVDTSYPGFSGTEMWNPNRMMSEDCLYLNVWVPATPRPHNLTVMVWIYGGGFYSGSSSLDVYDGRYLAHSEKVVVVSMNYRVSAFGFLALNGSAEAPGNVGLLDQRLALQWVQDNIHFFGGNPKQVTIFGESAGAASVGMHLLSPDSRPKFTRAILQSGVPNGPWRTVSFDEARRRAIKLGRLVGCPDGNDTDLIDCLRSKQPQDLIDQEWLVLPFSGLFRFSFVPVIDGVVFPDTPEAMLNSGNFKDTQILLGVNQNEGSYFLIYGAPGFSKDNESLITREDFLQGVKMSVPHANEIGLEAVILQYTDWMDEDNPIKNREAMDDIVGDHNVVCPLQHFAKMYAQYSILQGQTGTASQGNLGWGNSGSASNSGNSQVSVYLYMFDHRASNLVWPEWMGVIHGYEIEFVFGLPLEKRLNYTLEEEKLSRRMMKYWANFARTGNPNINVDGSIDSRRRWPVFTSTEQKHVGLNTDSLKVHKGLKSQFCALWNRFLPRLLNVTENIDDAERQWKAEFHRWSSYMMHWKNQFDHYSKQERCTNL

As to `O=C(COc1cc(=O)oc2ccccc12)OCc1cn(Cc2ccccc2Cl)nn1` [(1-(2-Chlorobenzyl)-1H-1,2,3-triazol-4-yl)methyl 2-(2-oxo-2H-chromen-4-yloxy)acetate (8k)], the IC50 in assay [1] is 0.18 µM; in assay [2] it was over 50 µM.

Take `COc1ccc(Cn2cc(COC(=O)COc3cc(=O)oc4ccccc34)nn2)cc1` [(1-(4-Methoxybenzyl)-1H-1,2,3-triazol-4-yl)methyl 2-(2-oxo-2H-chromen-4-yloxy)acetate (8e)]: the results for the IC50 in assay [1] and in assay [2] were 104 µM and over 50 µM, respectively.

Consider `Cc1ccc(Cn2cc(COC(=O)COc3cc(=O)oc4ccccc34)nn2)cc1` [(1-(4-Methylbenzyl)-1H-1,2,3-triazol-4-yl)methyl 2-(2-oxo-2H-chromen-4-yloxy)acetate (8g)], for which the 50% inhibitory concentration (IC50) is 90 µM in assay [1] and over 50 µM in assay [2].

On to `O=C(COc1cc(=O)oc2ccccc12)OCc1cn(Cc2cccc(Br)c2)nn1` [(1-(3-Bromobenzyl)-1H-1,2,3-triazol-4-yl)methyl 2-(2-oxo-2H-chromen-4-yloxy)acetate (8b)], for which the half-inhibitory concentration (IC50) in assay [1] was 1.79 µM; in assay [2], over 50 µM.

Regarding `O=C(COc1cc(=O)oc2ccccc12)OCc1cn(Cc2ccccc2[N+](=O)[O-])nn1` [(1-(2-Nitrobenzyl)-1H-1,2,3-triazol-4-yl)methyl 2-(2-oxo-2H-chromen-4-yloxy)acetate (8n)], the IC50 in assay [1] is 0.53 µM; in assay [2] it was over 50 µM.

For `O=C(COc1cc(=O)oc2ccccc12)OCc1cn(Cc2ccc([N+](=O)[O-])cc2)nn1` [(1-(4-Nitrobenzyl)-1H-1,2,3-triazol-4-yl)methyl 2-(2-oxo-2H-chromen-4-yloxy)acetate (8o)], the IC50 is 137 µM in assay [1] and over 50 µM in assay [2].

`O=C(COc1cc(=O)oc2ccccc12)OCc1cn(Cc2ccc(Br)cc2)nn1` [(1-(4-Bromobenzyl)-1H-1,2,3-triazol-4-yl)methyl 2-(2-oxo-2H-chromen-4-yloxy)acetate (8c)]: the IC50 in assay [1] is 87.9 µM; in assay [2] it was over 50 µM.

As for `O=C(COc1cc(=O)oc2ccccc12)OCc1cn(Cc2ccccc2F)nn1` [(1-(2-Fluorobenzyl)-1H-1,2,3-triazol-4-yl)methyl 2-(2-oxo-2H-chromen-4-yloxy)acetate (8h)], the IC50 in assay [1] is 5.7 µM; in assay [2] it was over 50 µM.

Consider `O=C(COc1cc(=O)oc2ccccc12)OCc1cn(Cc2ccccc2)nn1` [(1-Benzyl-1H-1,2,3-triazol-4-yl)methyl 2-((2-oxo-2H-chromen-4-yl)oxy)acetate (8p)], for which the concentration for half-maximal inhibition (IC50) in assay [1] was 15.8 µM; in assay [2] it was over 50 µM.

Take `COc1cccc(Cn2cc(COC(=O)COc3cc(=O)oc4ccccc34)nn2)c1` [(1-(3-Methoxybenzyl)-1H-1,2,3-triazol-4-yl)methyl 2-(2-oxo-2H-chromen-4-yloxy)acetate (8d)]: the 50% inhibitory concentration (IC50) in assay [1] is 7 µM; in assay [2], over 50 µM.

Consider `O=C(COc1cc(=O)oc2ccccc12)OCc1cn(Cc2cccc(Cl)c2)nn1` [(1-(3-Chlorobenzyl)-1H-1,2,3-triazol-4-yl)methyl 2-((2-oxo-2H-chromen-4-yl)oxy)acetate (8l)], for which the results for the 50% inhibitory concentration (IC50) in assay [1] and in assay [2] were 0.34 µM and over 50 µM, respectively.

Consider `O=C(COc1cc(=O)oc2ccccc12)OCc1cn(Cc2ccc(Cl)cc2)nn1` [(1-(4-Chlorobenzyl)-1H-1,2,3-triazol-4-yl)methyl 2-(2-oxo-2H-chromen-4-yloxy)acetate (8m)], for which the IC50 in assay [1] is 13 µM; in assay [2] it was over 50 µM.

On to `O=C(COc1cc(=O)oc2ccccc12)OCc1cn(Cc2ccccc2Br)nn1` [(1-(2-Bromobenzyl)-1H-1,2,3-triazol-4-yl)methyl 2-(2-oxo-2H-chromen-4-yloxy)acetate (8a)], for which the IC50 amounted to 2.14 µM in assay [1] and 43 µM in assay [2].

As to `O=C(COc1cc(=O)oc2ccccc12)OCc1cn(Cc2cccc(F)c2)nn1` [(1-(3-Fluorobenzyl)-1H-1,2,3-triazol-4-yl)methyl 2-(2-oxo-2H-chromen-4-yloxy)acetate (8i)], the concentration for half-maximal inhibition (IC50) in assay [1] was 1.64 µM; in assay [2], over 50 µM.

`Cc1ccccc1Cn1cc(COC(=O)COc2cc(=O)oc3ccccc23)nn1` [(1-(2-Methylbenzyl)-1H-1,2,3-triazol-4-yl)methyl 2-(2-oxo-2H-chromen-4-yloxy)acetate (8f)]: the IC50 in assay [1] was 1.79 µM; in assay [2] it was over 50 µM.

As for `O=C(COc1cc(=O)oc2ccccc12)OCc1cn(Cc2ccc(F)cc2)nn1` [(1-(4-Fluorobenzyl)-1H-1,2,3-triazol-4-yl)methyl 2-(2-oxo-2H-chromen-4-yloxy)acetate (8j)], the IC50 was 2.54 µM in assay [1] and over 50 µM in assay [2].
